The structures appear in SMILES notation. Where “and” joins values, the source holds several entries; their conditions need not be identical. Equal values may be shown once. Read-outs that look alike come from different tables or passages of the source.

Holding throughout (type): biochemical
One assay deals with T1, 5-α-reductase type II (Homo sapiens, UniProt P31213).
T1 sequence (P31213 1-254): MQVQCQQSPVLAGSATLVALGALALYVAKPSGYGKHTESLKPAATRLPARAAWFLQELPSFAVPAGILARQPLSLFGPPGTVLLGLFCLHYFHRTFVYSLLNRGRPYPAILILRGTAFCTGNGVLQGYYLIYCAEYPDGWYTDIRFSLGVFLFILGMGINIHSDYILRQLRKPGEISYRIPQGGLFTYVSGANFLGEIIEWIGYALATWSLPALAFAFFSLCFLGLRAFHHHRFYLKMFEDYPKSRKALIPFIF
The experiment in a line: Activity against 5-α-reductase type II. The note with it: statement in words, compared with finasteride. As to the method:
(§1) Rat 5-α-reductase II enzyme assay: Epididymus, taken out during the isolation of the rat prostates during rat enzyme I assay, was stored at −70° C. Isolation of the enzyme and the assay were carried out following the procedure described above, except the reaction buffer used was 40 mM Tris-citrate, pH 4.5. The range of IC50 values for different test compounds obtained from different experiments is shown in Table 1 under the column, Rat Epididymus Enzyme II IC50.
(§2) Human 5-α-reductase II enzyme assay: Specimens of human prostates were quickly frozen in dry ice after collection and kept at −70° C. before isolation of the enzyme. Isolation of the enzyme and the assay were carried out following a similar procedure as for the isolation of rat 5-α-reductase II enzyme with some modifications. During the isolation of the enzyme, 50 μM NADPH was added to the homogenizing buffer as a stabilizer. The enzyme was stored in the homogenizing buffer containing 20% glycerol. The enzyme reaction buffer used as 40 mM Tris-citrate buffer, pH 5.0. The range of IC50 values for different test compounds obtained from different experiments is shown in Table 1 under the column, Human Prostate Enzyme II IC50.

Assay [1] deals with T2, 5-α-reductase II enzyme (Homo sapiens, UniProt P31213).
T2 construct: Specimens of human prostates were quickly frozen in dry ice after collection and kept at −70° C. before isolation of the enzyme; from tissue; host or cells: human prostate specimens, particulate fraction
T2 sequence (P31213 1-254): T1 sequence (P31213 1-254)
Put plainly: Human 5-α-reductase II enzyme assay (human prostate). The note with it: Tris-citrate pH 5.0. As to the method: (§3) Biochemical Assays were carried out to determine the inhibitory activities of various compounds of the previous examples on 5-α-reductase I enzyme isolated from male rate prostate and 5-α-reductase II enzyme isolated from rat epididymus and human prostate. These procedures were carried out following published literature procedures (H. Takami et al., J. Med. Chem., 39, pp 5047-5052; Tehming Liang, Margaret A. Cascieri et al., Endocrinology, 117, pp 571-579). Brief descriptions are as follows:
as §1, §2

Assay [2] addresses T3, 5-α-reductase II enzyme (Rattus norvegicus, UniProt P31214).
T3 construct: from tissue; host or cells: rat epididymis (Sprague Dawley), particulate fraction
T3 sequence (P31214 1-254): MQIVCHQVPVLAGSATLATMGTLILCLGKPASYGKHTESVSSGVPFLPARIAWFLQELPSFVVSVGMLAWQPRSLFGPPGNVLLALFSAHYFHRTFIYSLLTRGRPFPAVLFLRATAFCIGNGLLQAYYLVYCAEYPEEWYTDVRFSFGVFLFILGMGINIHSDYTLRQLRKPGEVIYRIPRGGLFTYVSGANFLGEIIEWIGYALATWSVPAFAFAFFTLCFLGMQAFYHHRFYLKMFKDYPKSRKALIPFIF
Put plainly: Rat 5-α-reductase II enzyme assay (rat epididymus). The settings on record: range of IC50 values from different experiments; Tris-citrate pH 4.5. As to the method:
as §3
(§4) Rat 5-α-reductase I enzyme assay. Prostates, removed from 16 young male Sprague dawley rats (each weighing about 300-400 g), were minced and homogenized at 0-4° C. in 3 tissue volumes of buffer (0.32 M sucrose, 1 mM dithiothreitol, and 20 mM phosphate buffer, pH 6.5) using a polytron homogenizer. The homogenate was centrifuged at 4° C. at 140,000 g for 1 hour. The resultant pellet, after washing with the homogenizing buffer was suspended in the same buffer and stored at −70° C. The assay was carried out in a final volume of 0.5 ml containing 20 mM phosphate buffer (pH 6.5), 1 mM dithiothreitol, 150 μM NADPH, 2 μM ^14C testosterone and the enzyme concentration (500 μg-1 mg) For conducting the inhibitory studies on a 5-α-reductase I, finasteride and other test compounds were added in 10 μl of ethanol to a concentration 10^−9 to 10^−5 with five to six points including control using duplicate for each point to the above reaction mixture. The incubations were done for 20 minutes at 37° C. The reactions were stopped by adding 2.0 ml of ethyl acetate containing testosterone, 5-α-dihydrotestosterone, and androstenedione (10 μg each). After centrifugation at 1000 g for 5 minutes, the upper ethyl acetate extract was transferred to a tube and then evaporated under nitrogen to dryness. The compounds were taken up in 50 μl of ethyl acetate and chromatographed on Whatman LK5DF silica GF TLC plates using ethyl acetate-cyclohexane (1:1). The respective TLC spots corresponding to testosterone and dihydrotestosterone (Rf value same as that of androstenedione) were scraped from the plate and taken in respective scintillation vials. They were counted in the Beckman scintillation counter model No. LS 6500 with counting efficiency of 95% for ^14C carbon. Finasteride was used as a known standard during all screening. The range of IC50 values for different test compounds obtained from different experiments is shown in Table 1 under the column, Rat Prostate Enzyme I IC50.
as §1

The target of the next assay is T4, 5-α-reductase I enzyme (Rattus norvegicus, UniProt P24008).
T4 construct: Prostates, removed from 16 young male Sprague dawley rats (each weighing about 300-400 g), were minced and homogenized; from tissue; host or cells: rat prostate (Sprague Dawley), 140,000 g pellet
T4 sequence (P24008 1-259): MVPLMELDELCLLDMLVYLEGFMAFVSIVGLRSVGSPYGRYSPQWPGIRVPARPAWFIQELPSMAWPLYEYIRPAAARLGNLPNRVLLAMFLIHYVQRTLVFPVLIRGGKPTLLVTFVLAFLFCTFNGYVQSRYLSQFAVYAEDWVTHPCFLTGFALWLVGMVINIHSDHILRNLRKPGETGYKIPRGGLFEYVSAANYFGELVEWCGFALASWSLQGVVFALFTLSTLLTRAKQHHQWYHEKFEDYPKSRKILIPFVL
The experiment in a line: Rat 5-α-reductase I enzyme assay (rat prostate). The note with it: range of IC50 values from different experiments; pH 6.5, 2 μM 14C testosterone. As for the experimental part:
as §3, §4

Where [3] appears, read: range of IC50 values from different experiments, read-out: Human Prostate Enzyme II IC50.

What is called IC50 is the concentration needed to halve the response being measured. `CC(C)(C)NC(=O)[C@H]1CC[C@H]2[C@@H]3[C@H](Cl)C[C@H]4NC(=O)C=C[C@]4(C)[C@H]3CC[C@]12C` [7-α-Chloro-finasteride, 7-α-chloro-finasteride]: the “activity against 5-α-reductase type II” value on 5-α-reductase type II is recorded as “considerably higher than that of finasteride itself”. Also, the figures for the IC50 at 5-α-reductase II enzyme [1] (setting [3]), against 5-α-reductase II enzyme [2] and on 5-α-reductase I enzyme were 0.9 to 3.6 nM, 1.92 to 3.1 nM and 306 to 350 nM, respectively.
For the molecule `CC(C)(C)NC(=O)[C@H]1CC[C@H]2[C@@H]3[C@@H](O)C[C@H]4NC(=O)CC[C@]4(C)[C@H]3CC[C@]12C` [1,2-Dihydro-7-β-hydroxy-finasteride, 1,2-dihydro-7-β-hydroxy-finasteride], the IC50 fell in the range of 536 to 755 nM on 5-α-reductase II enzyme [1] (setting [3]), 567 to 891 nM on 5-α-reductase II enzyme [2] and 453 to 492 nM on 5-α-reductase I enzyme.
In the case of `CC(=O)O[C@@H]1C[C@H](C(=O)NC(C)(C)C)[C@@]2(C)CC[C@H]3[C@@H](CC[C@H]4NC(=O)C=C[C@@]43C)[C@H]12` [15-β-Acetoxy-finasteride, 15-β-acetoxy-finasteride], the IC50 at 5-α-reductase II enzyme [1] (read-out: Human Prostate Enzyme II IC50) was 2010 nM; at 5-α-reductase II enzyme [2], 1600 to 2700 nM; against 5-α-reductase I enzyme it was 4200 to 5700 nM.
In the case of `Cc1ccc(S(=O)(=O)O[C@H]2C[C@H]3NC(=O)C=C[C@]3(C)[C@H]3CC[C@]4(C)[C@@H](C(=O)NC(C)(C)C)CC[C@H]4[C@H]23)cc1` [7-β-Tosyloxy-finasteride, 7-β-tosyloxy-finasteride], the results for the IC50 at 5-α-reductase II enzyme [1] (setting [3]) and against 5-α-reductase I enzyme were 213 to 570 nM and 1500 to 4300 nM, respectively.
As for `CC(C)(C)NC(=O)C1CCC2C3CCC4NC(=O)C=CC4(C)C3CCC12C` (stereo not drawn) [Finasteride, (5α, 17β)-(1,1-dimethyl-ethyl)-3-oxo-4-aza-androst-1-ene-17-carboxamide, reference compound], the IC50 was 2.7 to 10.6 nM and 3.3 to 7 nM at 5-α-reductase II enzyme [1] (Human Prostate Enzyme II IC50, range of IC50 values from different experiments); 5.1 to 14.8 nM and 2.9 to 11.8 nM at 5-α-reductase II enzyme [2]; 11 to 38 nM and 13 to 30 nM against 5-α-reductase I enzyme.
Take `CC(C)(C)NC(=O)C1CC(O)C2C3CCC4NC(=O)C=CC4(C)C3CCC12C` (stereo not drawn) [15-β-hydroxy-finasteride]: the figures for the IC50 at 5-α-reductase II enzyme [1] (setting [3]), against 5-α-reductase II enzyme [2] and against 5-α-reductase I enzyme were 50 to 59 nM, 640 nM and 805 to 853 nM, respectively.
Molecule `CC(C)(C)NC(=O)[C@H]1C[C@@H](O)[C@H]2[C@@H]3CC[C@H]4NC(=O)CC[C@]4(C)[C@H]3CC[C@@]21C` [1,2-Dihydro-15-β-hydroxy-finasteride, 1,2-dihydro-15β-hydroxy-finasteride] returned an IC50 on 5-α-reductase I enzyme of 351 to 468 nM.
As to `CC(C)(C)NC(=O)[C@H]1CC[C@H]2[C@@H]3[C@H](Cl)C[C@H]4NC(=O)CC[C@]4(C)[C@H]3CC[C@]12C` [1,2-Dihydro-7-α-chloro-finasteride, 1,2-dihydro-7-α-chloro-finasteride], the half-inhibitory concentration (IC50) on 5-α-reductase II enzyme [1] (setting [3]) was 11.5 to 44 nM; at 5-α-reductase II enzyme [2], 2.9 to 8.6 nM; at 5-α-reductase I enzyme it was 53 to 99 nM.
With `CC(C)(C)NC(=O)[C@H]1CC[C@H]2[C@@H]3[C@H](N=[N+]=[N-])C[C@H]4NC(=O)C=C[C@]4(C)[C@H]3CC[C@]12C` [7-α-Azido-finasteride, 7-α-azido-finasteride], on 5-α-reductase type II, the “activity against 5-α-reductase type II” value is “very high specific inhibitory activity”. In addition, at 5-α-reductase II enzyme [1] (setting [3]), the IC50 lay within 19 to 32 nM.
Turning to `CC(C)(C)NC(=O)[C@H]1CC=C2[C@@H]3CC[C@H]4NC(=O)C=C[C@]4(C)[C@H]3CC[C@@]21C` [14,15-Dehydro-finasteride, 14,15-dehydro-finasteride], the IC50 at 5-α-reductase II enzyme [1] (setting [3]) was 39 to 49.6 nM; against 5-α-reductase II enzyme [2] it was 45 nM; on 5-α-reductase I enzyme it was 50 to 67 nM.
In the same order, the values of `CC(=O)O[C@H]1C[C@H]2NC(=O)C=C[C@]2(C)[C@H]2CC[C@]3(C)[C@@H](C(=O)NC(C)(C)C)CC[C@H]3[C@H]12` [7-β-Acetoxy-finasteride, 7-β-acetoxy-finasteride] are 175 to 362 nM, 135 to 357 nM and 385 to 697 nM.
With `CC(C)(C)NC(=O)C1CCC2C3C(CCC12C)C1(C)C=CC(=O)NC1C[C@@H]3O` (stereo partly drawn) [7-β-hydroxy-finasteride], the results for the IC50 on 5-α-reductase II enzyme [1] (setting [3]), on 5-α-reductase II enzyme [2] and on 5-α-reductase I enzyme were 62 to 64 nM, 106 nM and 811 to 1800 nM, respectively.

The record behind these values is patent publication US20020035260A1, “4-aza-steroids” (Novopharm Limited, priority 1997, published 2002).
